Data taken from publication PMC8364686, “Safety, tolerability, pharmacokinetics and pharmacodynamics of single oral doses of BI 187004, an inhibitor of 11beta-hydroxysteroid dehydrogenase-1, in healthy male volunteers with overweight or obesity” (Clinical Diabetes and Endocrinology, 2021).

Experiment: Plasma pharmacokinetics of BI 187004 after single oral doses (LC–MS/MS)
Settings: male, human, plasma, po, 20 mg; for concentration at 0.5 h / concentration at 1 h / concentration at 1.5 h / concentration at 2 h / concentration at 2.5 h / concentration at 3 h / concentration at 4 h / concentration at 5 h / concentration at 6 h: BI 187004 plasma concentrations, 20 mg single oral; for concentration at 0.5 h: planned time 0.5 h; for concentration at 1 h: planned time 1 h; for concentration at 1.5 h: planned time 1.5 h; for concentration at 2 h: planned time 2 h; for concentration at 2.5 h: planned time 2.5 h; for concentration at 3 h: planned time 3 h; for concentration at 4 h: planned time 4 h; for concentration at 5 h: planned time 5 h; for concentration at 6 h: planned time 6 h
Method: This was a randomized, double-blind, placebo-controlled, single rising dose study conducted at a single center in Germany. […] Follow-up on an ambulatory basis was performed between 11 and 15 days after study drug administration. […] At the time of use the oral solution for dosing was prepared using the PFOS and a co-supplied aqueous solvent containing HP-beta-cyclodextrin 100 mg/mL. The lowest dose level solutions were prepared by further dilution of the lower concentration solution with additional solvent.
For each accepted run, the acceptance criteria for the calibration standards and quality controls were met.

With `N#Cc1ccc2c(c1)[C@H]1CCCN(C(=O)c3ccc4[nH]cnc4c3)[C@H]1C2` [BI 187004] the Vd/F was 144 L, the half-life was 21.2 h and the concentration at 0.5 h (Max) was 1050 nM. It also gave a concentration at 0.5 h (Mean) of 431 nM, a concentration at 0.5 h (Median) of 215 nM and a concentration at 0.5 h (Min) of 34.3 nM. For the same molecule, the concentration at 0.5 h (gMean) was 211 nM, the concentration at 1 h (Max) was 1130 nM and the concentration at 1 h (Mean) was 885 nM. The concentration at 1 h (Median) was 1030 nM, the concentration at 1 h (Min) was 236 nM and the concentration at 1 h (gMean) was 788 nM. It also gave a concentration at 1.5 h (Max) of 1210 nM, a concentration at 1.5 h (Mean) of 969 nM and a concentration at 1.5 h (Median) of 944 nM. It also gave a concentration at 1.5 h (Min) of 824 nM, a concentration at 1.5 h (gMean) of 960 nM and a concentration at 1.5 h (individual subjects) of 1210 nM. For the same molecule, the concentration at 2 h (Max) was 1100 nM, the concentration at 2 h (Mean) was 877 nM and the concentration at 2 h (Median) was 890 nM. For the same molecule, the concentration at 2 h (Min) was 630 nM, the concentration at 2 h (gMean) was 863 nM and the concentration at 2 h (individual subjects) was 1100 nM. For the same molecule, the concentration at 2.5 h (Max) was 1060 nM, the concentration at 2.5 h (Mean) was 860 nM and the concentration at 2.5 h (Median) was 866 nM. It also gave a concentration at 2.5 h (Min) of 619 nM, a concentration at 2.5 h (gMean) of 843 nM and a concentration at 2.5 h (individual subjects) of 1060 nM. It also gave a concentration at 3 h (Max) of 945 nM, a concentration at 3 h (Mean) of 760 nM and a concentration at 3 h (Median) of 770 nM. The concentration at 3 h (Min) was 586 nM, the concentration at 3 h (gMean) was 746 nM and the concentration at 3 h (individual subjects) was 945 nM. For the same molecule, the concentration at 4 h (Max) was 896 nM, the concentration at 4 h (Mean) was 724 nM and the concentration at 4 h (Median) was 748 nM. The concentration at 4 h (Min) was 531 nM, the concentration at 4 h (gMean) was 707 nM and the concentration at 4 h (individual subjects) was 896 nM. It also gave a concentration at 5 h (Max) of 883 nM, a concentration at 5 h (Mean) of 653 nM and a concentration at 5 h (Median) of 644 nM. For the same molecule, the concentration at 5 h (Min) was 463 nM, the concentration at 5 h (gMean) was 634 nM and the concentration at 5 h (individual subjects) was 773 nM. For the same molecule, the concentration at 6 h (Max) was 847 nM, the concentration at 6 h (Mean) was 566 nM and the concentration at 6 h (Median) was 529 nM. It also gave a concentration at 6 h (Min) of 420 nM.
